In brackets after ≈: the same amount, converted by molar mass.
How the values were obtained:
[1] = system: C. krusei ATCC 6258; experiment: In vitro antimicrobial assay (modified NCCLS), Candida media pH 4.5; type: cell-based, Candida krusei; conditions: Pichia kudriavzevii, ATCC6258, pH 4.5, read-out: IC50 (50% inhibitory concentration)
[2] = system: M. intracellulare ATCC 23068; experiment: In vitro antibacterial assay (modified method of Franzblau, Alamar Blue); type: cell-based; conditions: Mycobacterium intracellulare
[3] = system: Fusarium oxysporum; experiment: 96-well microtiter fungal growth assay; type: cell-based;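 on Mean percent fungal growth inhibition of Fusarium oxysporum: percent relative to untreated positive growth controls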
Description: (§1) Pathogen collection. Isolates of Colletotrichum acutatum Simmonds, Colletotrichum fragariae Brooks, and Colletotrichum gloeosporioides (Penz.) Penz. & Sacc. in Penz. were obtained from B. J. Smith, USDA, ARS, Small Fruit Research Station, Poplarville, Mass. Colletotrichum fragariae (isolate CF63), C. acutatum (isolate CAGoff), and C. gloeosporioides (isolate CG162) were used for all pathogen and bioautography studies. Isolate CF63 is one of the most virulent isolates at infecting strawberry plants and inducing both crown and fruit rot (Smith and Black, 1990). CF63, CAGoff, and CG162 were used as standard test isolates because of our extensive knowledge of these isolates and their known fungicide sensitivity profiles in both bioautography and microtiter formats. The three Colletotrichum species were isolated from strawberry (Fragaria xananassa Duchesne). Botrytis cinerea Pers.:Fr, was isolated from commercial grape (Vitis vinifera L.) and Fusarium oxysporum Schlechtend:Fr from orchid (Cynoches sp.) by David E. Wedge, USDA ARS Natural Products Utilization Research Unit. Phomopsis viticola (Sacc.) and P. obscurans (Ellis & Everh.) Sutton were from Mike A. Ellis, Ohio State University, Wooster, Ohio. Fungi were grown on potato-dextrose agar (PDA, Difco, Detroit Mich.) in 9 cm petri dishes and incubated in a growth chamber at 24±2° C. and under cool-white fluorescent lights ([…]·m^−2·sec^−1 light) with 12-h photoperiod.
(§2) Inoculum preparation. Conidia were harvested from 7–10 day-old cultures by flooding plates with 5 mL of sterile distilled water and dislodging conidia by softly brushing the colonies with an L-shaped glass rod. Conidial suspensions were filtered through sterile miracloth (Calbiochem-Novabiochem Corp., La Jolla Calif.) to remove mycelia. Conidia concentrations were determined photometrically, from a standard curve based on the absorbance at 625 nm and suspensions were then adjusted with sterile distilled water to a concentration of 1.0×10^6 conidia/mL.
(§3) Microtiter assay. A standardized 96-well microtiter plate assay developed for discovery of natural product fungicidal agents. A 96-well microtiter assay was used to determine sensitivity of B. cinerea, C. acutatum, C. fragariae, C. gloeosporioides, F. oxysporum, Phomopsis viticola, and P. obscurans to the various antifungal agents in comparison with known fungicidal standards. Vinclozolin, captan, and thiabendazole, which represent three different modes of action, were used as standards in this experiment. Each fungus was challenged in a dose-response format using test compounds where the final treatment concentrations were 0.3, 3.0 and 30.0 μM. Microtiter plates (Nunc MicroWell, untreated; Roskilde, Denmark) were covered with a plastic lid and incubated in a growth chamber at 24±1 C and 12 h photoperiod under 60±5 μmol light. Growth was then evaluated by measuring absorbance of each well at 620 nm using a microplate photometer (Packard Spectra Count, Packard Instrument Co., Downers Grove, Ill.).
(§4) Microbioassay Experimental Design. Chemical sensitivity of each fungus 96-well microtiter assay is used to determine sensitivity of B. cinerea, C. acutatum, C. fragariae, C. gloeosporioides, F. oxysporum, Phomopsis viticola, and P. obscurans. Each chemical is evaluated in duplicate at each dose (0.3, 3.0 and 30.0 μM) and repeated twice in time. Sixteen wells containing broth and inoculum serves as positive controls, eight wells containing solvent at the appropriate concentration and broth without inoculum are used as negative controls. Mean absorbance values and standard errors is used to evaluate fungal growth at 48 hrs and 72 hrs except for P. obscurans and P. viticola the data are recorded at 120 hrs. […] Treatments are arranged as a split-plot design replicated twice in time. Whole-plots were fungal isolates and sub-plots are chemicals. Each dose level and response time is analyzed separately. […]

[4] = system: Colletotrichum fragariae; experiment: 96-well microtiter fungal growth assay; type: cell-based;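 on Mean percent fungal growth inhibition of Colletotrichum fragariae: percent relative to untreated positive growth controls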
Description: as §1, §2, §3, §4

[5] = system: Botrytis cinerea; experiment: 96-well microtiter fungal growth assay; type: cell-based;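 on Mean percent fungal growth inhibition of Botrytis cinerea: percent relative to untreated positive growth controls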
Description: as §1, §2, §3, §4

[6] = system: Colletotrichum gloeosporioides; experiment: 96-well microtiter fungal growth assay; type: cell-based;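 on Mean percent fungal growth inhibition of Colletotrichum gloeosporoides: percent relative to untreated positive growth controls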
Description: as §1, §2, §3, §4

[7] = system: Colletotrichum acutatum; experiment: 96-well microtiter fungal growth assay; type: cell-based;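 on Mean percent fungal growth inhibition of Colletotrichum acutatum: percent relative to untreated positive growth controls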
Description: as §1, §2, §3, §4

[8] = system: Phomopsis viticola; experiment: 96-well microtiter fungal growth assay; type: cell-based;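 on Mean percent fungal growth inhibition of Phomopsis viticola: percent relative to untreated positive growth controls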
Description: as §1, §2, §3
(§5) Microbioassay Experimental Design. Chemical sensitivity of each fungus 96-well microtiter assay is used to determine sensitivity of B. cinerea, C. acutatum, C. fragariae, C. gloeosporioides, F. oxysporum, Phomopsis viticola, and P. obscurans. Each chemical is evaluated in duplicate at each dose (0.3, 3.0 and 30.0 μM) and repeated twice in time. Sixteen wells containing broth and inoculum serves as positive controls, eight wells containing solvent at the appropriate concentration and broth without inoculum are used as negative controls. […] Treatments are arranged as a split-plot design replicated twice in time. Whole-plots were fungal isolates and sub-plots are chemicals. Each dose level and response time is analyzed separately. The SAS system's analysis of variance procedure (Statistical Analysis System, Cary, N.C.) is used to identify significant factors and Fisher's protected LSD is used to separate means.

[9] = system: Phomopsis obscurans; experiment: 96-well microtiter fungal growth assay; type: cell-based
Description: as §1, §2, §3, §5

With COC(/C=C/c1ccccc1)=C1\C(=O)C=C(C)C1=O [Compound 1, coruscanone A] the IC50 [1] was 2.5 µg/mL (≈ 9.83 µM), the IC50 ([2]; ATCC23068, read-out: IC50 (50% inhibitory concentration)) was 1.5 µg/mL (≈ 5.9 µM) and the MIC ([2]; ATCC23068, M. intracellulare ATCC 23068) was 2.5 µg/mL (≈ 9.83 µM). For the same compound, the MBC ([2]; ATCC23068, M. intracellulare ATCC 23068, read-out: MBC (Minimum Bactericidal Concentration)) was 5 µg/mL (≈ 19.7 µM), the “Mean percent fungal growth inhibition of Fusarium oxysporum” value ([3]; 0.3 μm, 48 hrs) was 2.4 ± 4.7% and the “Mean percent fungal growth inhibition of Fusarium oxysporum” value ([3]; 0.3 μm, 72 hrs) was 12.2 ± 2.1%. For the same compound, the “Mean percent fungal growth inhibition of Fusarium oxysporum” value ([3]; 3.0 μm, 48 hrs) was −76.9 ± 1.6%, the “Mean percent fungal growth inhibition of Fusarium oxysporum” value ([3]; 3.0 μm, 72 hrs) was −24.2 ± 3.3% and the “Mean percent fungal growth inhibition of Fusarium oxysporum” value ([3]; 30 μm, 48 hrs) was −99.3 ± 0.2%. The “Mean percent fungal growth inhibition of Fusarium oxysporum” value ([3]; 30 μm, 72 hrs) was −98.9 ± 0.2%, the IC50 ([3]; Fusarium oxysporum, F. oxysporum, 96-well microbioassay, read-out: IC50 (growth inhibition)) was < 12.5 µM and the “Mean percent fungal growth inhibition of Colletotrichum fragariae” value ([4]; 0.3 μm, 48 hrs) was −14.1 ± 10.8%. For the same compound, the “Mean percent fungal growth inhibition of Colletotrichum fragariae” value ([4]; 0.3 μm, 72 hrs) was −4.8 ± 5.0%, the “Mean percent fungal growth inhibition of Colletotrichum fragariae” value ([4]; 3.0 μm, 48 hrs) was −94.0 ± 1.9% and the “Mean percent fungal growth inhibition of Colletotrichum fragariae” value ([4]; 3.0 μm, 72 hrs) was −54.6 ± 18.7%. For the same compound, the “Mean percent fungal growth inhibition of Colletotrichum fragariae” value ([4]; 30 μm, 48 hrs) was −96.9 ± 1.9%, the “Mean percent fungal growth inhibition of Colletotrichum fragariae” value ([4]; 30 μm, 72 hrs) was −67.4 ± 18.3% and the IC50 ([4]; Colletotrichum fragariae, C. fragariae, 96-well microbioassay, read-out: IC50 (growth inhibition)) was < 3.1 µM. The “Mean percent fungal growth inhibition of Botrytis cinerea” value ([5]; 0.3 μm, 48 hrs) was −7.3 ± 12.8%, the “Mean percent fungal growth inhibition of Botrytis cinerea” value ([5]; 0.3 μm, 72 hrs) was 28.1 ± 8.3% and the “Mean percent fungal growth inhibition of Botrytis cinerea” value ([5]; 3.0 μm, 48 hrs) was −45.2 ± 16.4%. The “Mean percent fungal growth inhibition of Botrytis cinerea” value ([5]; 3.0 μm, 72 hrs) was −15.7 ± 10.6%, the “Mean percent fungal growth inhibition of Botrytis cinerea” value ([5]; 30 μm, 48 hrs) was −69.6 ± 9.8% and the “Mean percent fungal growth inhibition of Botrytis cinerea” value ([5]; 30 μm, 72 hrs) was −88.4 ± 5.6%. For the same compound, the IC50 ([5]; Botrytis cinerea, 48 h, read-out: IC50 (growth inhibition)) was < 1.55 µM, the “Mean percent fungal growth inhibition of Colletotrichum gloeosporoides” value ([6]; 0.3 μm, 48 hrs) was 37.7 ± 9.0% and the “Mean percent fungal growth inhibition of Colletotrichum gloeosporoides” value ([6]; 0.3 μm, 72 hrs) was 46.7 ± 3.9%. The “Mean percent fungal growth inhibition of Colletotrichum gloeosporoides” value ([6]; 3.0 μm, 48 hrs) was −79.9 ± 2.8%, the “Mean percent fungal growth inhibition of Colletotrichum gloeosporoides” value ([6]; 3.0 μm, 72 hrs) was −13.8 ± 3.7% and the “Mean percent fungal growth inhibition of Colletotrichum gloeosporoides” value ([6]; 30 μm, 48 hrs) was −95.2 ± 2.2%. The “Mean percent fungal growth inhibition of Colletotrichum gloeosporoides” value ([6]; 30 μm, 72 hrs) was −94.4 ± 1.6%, the IC50 ([6]; Colletotrichum gloeosporioides, C. gleoesporioides, 96-well microbioassay, read-out: IC50 (growth inhibition)) was < 3.1 µM and the “Mean percent fungal growth inhibition of Colletotrichum acutatum” value ([7]; 0.3 μm, 48 hrs) was 49.7 ± 6.6%. The “Mean percent fungal growth inhibition of Colletotrichum acutatum” value ([7]; 0.3 μm, 72 hrs) was 38.0 ± 3.0%, the “Mean percent fungal growth inhibition of Colletotrichum acutatum” value ([7]; 3.0 μm, 48 hrs) was −73.1 ± 4.9% and the “Mean percent fungal growth inhibition of Colletotrichum acutatum” value ([7]; 3.0 μm, 72 hrs) was −21.8 ± 4.4%. For the same compound, the “Mean percent fungal growth inhibition of Colletotrichum acutatum” value ([7]; 30 μm, 48 hrs) was −95.8 ± 1.9%, the “Mean percent fungal growth inhibition of Colletotrichum acutatum” value ([7]; 30 μm, 72 hrs) was −97.6 ± 0.8% and the IC50 ([7]; Colletotrichum acutatum, C. acutatum, 96-well microbioassay, read-out: IC50 (growth inhibition)) was < 3.1 µM. For the same compound, the “Mean percent fungal growth inhibition of Phomopsis viticola” value ([8]; 0.3 μm, 120 hrs) was 7.4 ± 124.1%, the “Mean percent fungal growth inhibition of Phomopsis viticola” value ([8]; 0.3 μm, 144 hrs) was 423.2 ± 185.3% and the “Mean percent fungal growth inhibition of Phomopsis viticola” value ([8]; 3.0 μm, 120 hrs) was −71.1 ± 50.9%. The “Mean percent fungal growth inhibition of Phomopsis viticola” value ([8]; 3.0 μm, 144 hrs) was −71.3 ± 15.7%, the “Mean percent fungal growth inhibition of Phomopsis viticola” value ([8]; 30 μm, 120 hrs) was −61.8 ± 86.8% and the “Mean percent fungal growth inhibition of Phomopsis viticola” value ([8]; 30 μm, 144 hrs) was −79.1 ± 13.3%. The IC50 ([8]; Diaporthe ampelina, 72 h, read-out: IC50 (growth inhibition)) was < 1.55 µM, the “Percent change in fungal growth vs control (negative = inhibition)” value (shortened to “Percent change … (negative = inhibition)”) ([9]; 0.3 μm, 120 hrs) was 3.3 ± 19.9% and the “Percent change … (negative = inhibition)” value ([9]; 0.3 μm, 144 hrs) was 33.3 ± 41.6%. The “Percent change … (negative = inhibition)” value ([9]; 3.0 μm, 120 hrs) was −37.4 ± 25.0%, the “Percent change … (negative = inhibition)” value ([9]; 3.0 μm, 144 hrs) was −13.3 ± 36.0% and the “Percent change … (negative = inhibition)” value ([9]; 30 μm, 120 hrs) was −88.5 ± 3.4%. For the same compound, the “Percent change … (negative = inhibition)” value ([9]; 30 μm, 144 hrs) was −96.9 ± 1.2% and the IC50 ([9]; Paraphomopsis obscurans, Phomopis obscurans, at 120 hr, read-out: IC50 (growth inhibition)) was < 3.1 µM.

Reference: patent publication US7109380B2, “Cyclopentenedione antifungal compounds and methods for their use” (The University of Mississippi, priority 2004, dated 2006)
